Results from ChEMBL document CHEMBL3862012, “Methylene versus carbonyl bridge in the structure of new tubulin polymerization inhibitors with tricyclic A-rings” (Bioorg Med Chem, 2016).

assay: Inhibition of sheep brain tubulin polymerization by DAPI staining-based fluorimetric method; design: species or system Ovis aries; conditions: not given

Row | Structure (SMILES) | IC50 [nM]
1 | COc1ccc(CN2c3ccccc3Sc3ccccc32)cc1F | 20700

assay: Cytotoxicity against human HCC2998 cells assessed as growth inhibition at 10 uM after 48 hrs by SRB assay relative to control; assay type: functional; conditions: HCC 2998, 48 h, read-out: GI

Row | Structure (SMILES) | inhibition of growth at 10 µM [%]
2 | COc1ccc(CN2c3ccccc3Sc3ccccc32)c(F)c1 | 38
3 | COc1ccc(CN2c3ccccc3Sc3ccccc32)cc1F | 82

assay: Cytotoxicity against human SK-MEL-28 cells assessed as growth inhibition at 10 uM after 48 hrs by SRB assay relative to control; assay type: functional; conditions: SK-MEL-28, 48 h, read-out: GI

Row | Structure (SMILES) | inhibition of growth at 10 µM [%]
4 | COc1ccc(CN2c3ccccc3Sc3ccccc32)c(F)c1 | 47
5 | COc1ccc(CN2c3ccccc3Sc3ccccc32)cc1F | 43

assay: Cytotoxicity against human SK-MEL-5 cells assessed as growth inhibition at 10 uM after 48 hrs by SRB assay relative to control; assay type: functional; conditions: SK-MEL-5, 48 h, read-out: GI

Row | Structure (SMILES) | inhibition of growth at 10 µM [%]
6 | COc1ccc(CN2c3ccccc3Sc3ccccc32)c(F)c1 | 74
7 | COc1ccc(CN2c3ccccc3Sc3ccccc32)cc1F | 78

assay: Cytotoxicity against human SN12C cells assessed as growth inhibition at 10 uM after 48 hrs by SRB assay relative to control; assay type: functional; conditions: read-out: GI

Row | Structure (SMILES) | inhibition of growth at 10 µM [%]
8 | COc1ccc(CN2c3ccccc3Sc3ccccc32)c(F)c1 | 53
9 | COc1ccc(CN2c3ccccc3Sc3ccccc32)cc1F | 55

assay: Cytotoxicity against human CCRF-CEM cells assessed as growth inhibition after 48 hrs by SRB assay; assay type: functional; conditions: not given

Row | Structure (SMILES) | GI50 [nM]
10 | COc1ccc(CN2c3ccccc3Sc3ccccc32)cc1F | 428
11 | COc1ccc(CN2c3ccccc3Sc3ccccc32)c(C(F)(F)F)c1 | 454

assay: Cytotoxicity against human HL-60(TB) cells assessed as growth inhibition after 48 hrs by SRB assay; assay type: functional; conditions: HL-60, 48 h

Row | Structure (SMILES) | GI50 [nM]
12 | COc1ccc(CN2c3ccccc3Sc3ccccc32)cc1F | 262
13 | COc1ccc(CN2c3ccccc3Sc3ccccc32)c(C(F)(F)F)c1 | 412

assay: Cytotoxicity against human K562 cells assessed as growth inhibition after 48 hrs by SRB assay; assay type: functional; conditions: K562, 48 h

Row | Structure (SMILES) | GI50 [nM]
14 | COc1ccc(CN2c3ccccc3Sc3ccccc32)c(F)c1 | 38
15 | COc1ccc(CN2c3ccccc3Sc3ccccc32)cc1F | 369
16 | COc1ccc(CN2c3ccccc3Sc3ccccc32)c(C(F)(F)F)c1 | 395

assay: Cytotoxicity against human MOLT4 cells assessed as growth inhibition after 48 hrs by SRB assay; assay type: functional; conditions: MOLT-4, 48 h

Row | Structure (SMILES) | GI50 [nM]
17 | COc1ccc(CN2c3ccccc3Sc3ccccc32)cc1F | 468
18 | COc1ccc(CN2c3ccccc3Sc3ccccc32)c(C(F)(F)F)c1 | 288

assay: Cytotoxicity against human RPMI8226 cells assessed as growth inhibition after 48 hrs by SRB assay; assay type: functional; conditions: RPMI-8226, 48 h

Row | Structure (SMILES) | GI50 [nM]
19 | COc1ccc(CN2c3ccccc3Sc3ccccc32)cc1F | 482
20 | COc1ccc(CN2c3ccccc3Sc3ccccc32)c(C(F)(F)F)c1 | 3000

assay: Cytotoxicity against human SR cells assessed as growth inhibition after 48 hrs by SRB assay; assay type: functional; conditions: not given

Row | Structure (SMILES) | GI50 [nM]
21 | COc1ccc(CN2c3ccccc3Sc3ccccc32)c(F)c1 | 60
22 | COc1ccc(CN2c3ccccc3Sc3ccccc32)cc1F | 354
23 | COc1ccc(CN2c3ccccc3Sc3ccccc32)c(C(F)(F)F)c1 | 483

assay: Cytotoxicity against human A549 cells assessed as growth inhibition after 48 hrs by SRB assay; assay type: functional; conditions: A549, 48 h

Row | Structure (SMILES) | GI50 [nM]
24 | COc1ccc(CN2c3ccccc3Sc3ccccc32)cc1F | 757
25 | COc1ccc(CN2c3ccccc3Sc3ccccc32)c(C(F)(F)F)c1 | 807

assay: Cytotoxicity against human EKVX cells assessed as growth inhibition after 48 hrs by SRB assay; assay type: functional; conditions: not given

Row | Structure (SMILES) | GI50 [nM]
26 | COc1ccc(CN2c3ccccc3Sc3ccccc32)cc1F | 612
27 | COc1ccc(CN2c3ccccc3Sc3ccccc32)c(C(F)(F)F)c1 | 1200

assay: Cytotoxicity against human HOP62 cells assessed as growth inhibition after 48 hrs by SRB assay; assay type: functional; conditions: HOP-62, 48 h

Row | Structure (SMILES) | GI50 [nM]
28 | COc1ccc(CN2c3ccccc3Sc3ccccc32)cc1F | 506
29 | COc1ccc(CN2c3ccccc3Sc3ccccc32)c(C(F)(F)F)c1 | 604

assay: Cytotoxicity against human NCI-H23 cells assessed as growth inhibition after 48 hrs by SRB assay; assay type: functional; conditions: NCI-H23, 48 h

Row | Structure (SMILES) | GI50 [nM]
30 | COc1ccc(CN2c3ccccc3Sc3ccccc32)cc1F | 764
31 | COc1ccc(CN2c3ccccc3Sc3ccccc32)c(C(F)(F)F)c1 | 1030

assay: Cytotoxicity against human NCI-H522 cells assessed as growth inhibition after 48 hrs by SRB assay; assay type: functional; conditions: NCI-H522, 48 h

Row | Structure (SMILES) | GI50 [nM]
32 | COc1ccc(CN2c3ccccc3Sc3ccccc32)cc1F | 300
33 | COc1ccc(CN2c3ccccc3Sc3ccccc32)c(C(F)(F)F)c1 | 314

assay: Cytotoxicity against human HCC2998 cells assessed as growth inhibition after 48 hrs by SRB assay; assay type: functional; conditions: HCC 2998, 48 h

Row | Structure (SMILES) | GI50 [nM]
34 | COc1ccc(CN2c3ccccc3Sc3ccccc32)c(F)c1 | 5060
35 | COc1ccc(CN2c3ccccc3Sc3ccccc32)cc1F | 1130
36 | COc1ccc(CN2c3ccccc3Sc3ccccc32)c(C(F)(F)F)c1 | 2000

assay: Cytotoxicity against human HT-29 cells assessed as growth inhibition after 48 hrs by SRB assay; assay type: functional; conditions: HT-29, 48 h

Row | Structure (SMILES) | GI50 [nM]
37 | COc1ccc(CN2c3ccccc3Sc3ccccc32)c(F)c1 | 35
38 | COc1ccc(CN2c3ccccc3Sc3ccccc32)cc1F | 331
39 | COc1ccc(CN2c3ccccc3Sc3ccccc32)c(C(F)(F)F)c1 | 681

assay: Cytotoxicity against human KM12 cells assessed as growth inhibition after 48 hrs by SRB assay; assay type: functional; conditions: KM12, 48 h

Row | Structure (SMILES) | GI50 [nM]
40 | COc1ccc(CN2c3ccccc3Sc3ccccc32)c(F)c1 | 43
41 | COc1ccc(CN2c3ccccc3Sc3ccccc32)cc1F | 419

assay: Cytotoxicity against human SF295 cells assessed as growth inhibition after 48 hrs by SRB assay; assay type: functional; conditions: SF-295, 48 h

Row | Structure (SMILES) | GI50 [nM]
42 | COc1ccc(CN2c3ccccc3Sc3ccccc32)cc1F | 333
43 | COc1ccc(CN2c3ccccc3Sc3ccccc32)c(C(F)(F)F)c1 | 320

assay: Cytotoxicity against human U251 cells assessed as growth inhibition after 48 hrs by SRB assay; assay type: functional; conditions: U-251, 48 h

Row | Structure (SMILES) | GI50 [nM]
44 | COc1ccc(CN2c3ccccc3Sc3ccccc32)cc1F | 529
45 | COc1ccc(CN2c3ccccc3Sc3ccccc32)c(C(F)(F)F)c1 | 431

assay: Cytotoxicity against human UACC62 cells assessed as growth inhibition after 48 hrs by SRB assay; assay type: functional; conditions: UACC-62, 48 h

Row | Structure (SMILES) | GI50 [nM]
46 | COc1ccc(CN2c3ccccc3Sc3ccccc32)cc1F | 499
47 | COc1ccc(CN2c3ccccc3Sc3ccccc32)c(C(F)(F)F)c1 | 917

assay: Cytotoxicity against human LOXIMVI cells assessed as growth inhibition after 48 hrs by SRB assay; assay type: functional; conditions: LOX IMVI

Row | Structure (SMILES) | GI50 [nM]
48 | COc1ccc(CN2c3ccccc3Sc3ccccc32)cc1F | 722
49 | COc1ccc(CN2c3ccccc3Sc3ccccc32)c(C(F)(F)F)c1 | 832

assay: Cytotoxicity against human MALME-3M cells assessed as growth inhibition after 48 hrs by SRB assay; assay type: functional; conditions: not given

Row | Structure (SMILES) | GI50 [nM]
50 | COc1ccc(CN2c3ccccc3Sc3ccccc32)c(C(F)(F)F)c1 | 21000

assay: Cytotoxicity against human OVCAR4 cells assessed as growth inhibition after 48 hrs by SRB assay; assay type: functional; conditions: OVCAR-4, 48 h

Row | Structure (SMILES) | GI50 [nM]
51 | COc1ccc(CN2c3ccccc3Sc3ccccc32)cc1F | 7250
52 | COc1ccc(CN2c3ccccc3Sc3ccccc32)c(C(F)(F)F)c1 | 2160

assay: Cytotoxicity against human OVCAR8 cells assessed as growth inhibition after 48 hrs by SRB assay; assay type: functional; conditions: OVCAR-8, 48 h

Row | Structure (SMILES) | GI50 [nM]
53 | COc1ccc(CN2c3ccccc3Sc3ccccc32)cc1F | 663
54 | COc1ccc(CN2c3ccccc3Sc3ccccc32)c(C(F)(F)F)c1 | 2220

assay: Cytotoxicity against human NCI-ADR-RES cells assessed as growth inhibition after 48 hrs by SRB assay; assay type: functional; conditions: not given

Row | Structure (SMILES) | GI50 [nM]
55 | COc1ccc(CN2c3ccccc3Sc3ccccc32)cc1F | 326
56 | COc1ccc(CN2c3ccccc3Sc3ccccc32)c(C(F)(F)F)c1 | 462

assay: Cytotoxicity against human A498 cells assessed as growth inhibition after 48 hrs by SRB assay; assay type: functional; conditions: A498, 48 h

Row | Structure (SMILES) | GI50 [nM]
57 | COc1ccc(CN2c3ccccc3Sc3ccccc32)cc1F | 283
58 | COc1ccc(CN2c3ccccc3Sc3ccccc32)c(C(F)(F)F)c1 | 372

assay: Cytotoxicity against human SN12C cells assessed as growth inhibition after 48 hrs by SRB assay; assay type: functional; conditions: not given

Row | Structure (SMILES) | GI50 [nM]
59 | COc1ccc(CN2c3ccccc3Sc3ccccc32)c(F)c1 | 10600
60 | COc1ccc(CN2c3ccccc3Sc3ccccc32)cc1F | 575
61 | COc1ccc(CN2c3ccccc3Sc3ccccc32)c(C(F)(F)F)c1 | 9730

assay: Cytotoxicity against human UO31 cells assessed as growth inhibition after 48 hrs by SRB assay; assay type: functional; conditions: UO-31, 48 h

Row | Structure (SMILES) | GI50 [nM]
62 | COc1ccc(CN2c3ccccc3Sc3ccccc32)cc1F | 916
63 | COc1ccc(CN2c3ccccc3Sc3ccccc32)c(C(F)(F)F)c1 | 3980

assay: Cytotoxicity against human ACHN cells assessed as growth inhibition after 48 hrs by SRB assay; assay type: functional; conditions: not given

Row | Structure (SMILES) | GI50 [nM]
64 | COc1ccc(CN2c3ccccc3Sc3ccccc32)cc1F | 1220
65 | COc1ccc(CN2c3ccccc3Sc3ccccc32)c(C(F)(F)F)c1 | 666

assay: Cytotoxicity against human PC3 cells assessed as growth inhibition after 48 hrs by SRB assay; assay type: functional; conditions: PC-3, 48 h

Row | Structure (SMILES) | GI50 [nM]
66 | COc1ccc(CN2c3ccccc3Sc3ccccc32)cc1F | 485
67 | COc1ccc(CN2c3ccccc3Sc3ccccc32)c(C(F)(F)F)c1 | 546

assay: Cytotoxicity against human Hs 578T cells assessed as growth inhibition after 48 hrs by SRB assay; assay type: functional; conditions: not given

Row | Structure (SMILES) | GI50 [nM]
68 | COc1ccc(CN2c3ccccc3Sc3ccccc32)cc1F | 459
69 | COc1ccc(CN2c3ccccc3Sc3ccccc32)c(C(F)(F)F)c1 | 877

assay: Cytotoxicity against human BT549 cells assessed as growth inhibition after 48 hrs by SRB assay; assay type: functional; conditions: BT-549, 48 h

Row | Structure (SMILES) | GI50 [nM]
70 | COc1ccc(CN2c3ccccc3Sc3ccccc32)cc1F | 562
71 | COc1ccc(CN2c3ccccc3Sc3ccccc32)c(C(F)(F)F)c1 | 3120

assay: Cytotoxicity against human MDA-MB-468 cells assessed as growth inhibition after 48 hrs by SRB assay; assay type: functional; conditions: MDA-MB-468, 48 h

Row | Structure (SMILES) | GI50 [nM]
72 | COc1ccc(CN2c3ccccc3Sc3ccccc32)cc1F | 309
73 | COc1ccc(CN2c3ccccc3Sc3ccccc32)c(C(F)(F)F)c1 | 275
